Laboratory results taken from BindingDB's records for doi:10.1016/j.ejmech.2012.08.033 (2012).

The compounds below were run against Casein kinase I isoform alpha (Homo sapiens, UniProt P48729) (assay: Inhibition of CK1 after 30 mins by liquid scintillation counter).
Casein kinase I isoform alpha, sequence (P48729 whole entry, canonical isoform): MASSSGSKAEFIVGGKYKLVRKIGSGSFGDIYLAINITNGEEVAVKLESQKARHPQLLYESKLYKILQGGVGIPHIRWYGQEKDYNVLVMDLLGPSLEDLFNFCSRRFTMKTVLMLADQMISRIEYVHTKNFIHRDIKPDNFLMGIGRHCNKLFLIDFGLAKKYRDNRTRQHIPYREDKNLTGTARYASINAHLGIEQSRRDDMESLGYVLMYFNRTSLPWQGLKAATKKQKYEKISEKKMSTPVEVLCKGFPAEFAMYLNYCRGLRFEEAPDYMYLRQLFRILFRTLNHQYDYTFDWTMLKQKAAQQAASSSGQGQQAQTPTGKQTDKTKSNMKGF

| IC50 [nM] | Structure (SMILES) |
| --- | --- |
| 180 | CC(C)n1cnc2c(NCc3ccc(-c4ccccn4)cc3)nc(NC[C@@H](O)CO)nc21 |
| 390 | CC(C)n1cnc2c(NCc3ccc(-c4ccccn4)cc3)nc(N3C[C@H](O)C[C@H]3CO)nc21 |
| 660 | CC(C)n1cnc2c(NCc3ccc(-c4ccccn4)cc3)nc(NCC[C@H](O)CO)nc21 |
| 150 | CC(C)[C@H](N)C(=O)OC[C@H](O)CNc1nc(NCc2ccc(-c3ccccn3)cc2)c2ncn(C(C)C)c2n1 |
